Results as given in PMC3809102 (Current cancer drug targets, 2010).

Legend:
[1] = molecular target: Ku70 (Homo sapiens, UniProt P12956); experiment: surface plasmon resonance; assay type: binding
[2] = molecular target: T1, SIRT1 (Homo sapiens, UniProt Q96EB6); experiment: cell-free SIRT1 FRET-based screening assay; assay type: biochemical
T1 sequence (Q96EB6 2-747): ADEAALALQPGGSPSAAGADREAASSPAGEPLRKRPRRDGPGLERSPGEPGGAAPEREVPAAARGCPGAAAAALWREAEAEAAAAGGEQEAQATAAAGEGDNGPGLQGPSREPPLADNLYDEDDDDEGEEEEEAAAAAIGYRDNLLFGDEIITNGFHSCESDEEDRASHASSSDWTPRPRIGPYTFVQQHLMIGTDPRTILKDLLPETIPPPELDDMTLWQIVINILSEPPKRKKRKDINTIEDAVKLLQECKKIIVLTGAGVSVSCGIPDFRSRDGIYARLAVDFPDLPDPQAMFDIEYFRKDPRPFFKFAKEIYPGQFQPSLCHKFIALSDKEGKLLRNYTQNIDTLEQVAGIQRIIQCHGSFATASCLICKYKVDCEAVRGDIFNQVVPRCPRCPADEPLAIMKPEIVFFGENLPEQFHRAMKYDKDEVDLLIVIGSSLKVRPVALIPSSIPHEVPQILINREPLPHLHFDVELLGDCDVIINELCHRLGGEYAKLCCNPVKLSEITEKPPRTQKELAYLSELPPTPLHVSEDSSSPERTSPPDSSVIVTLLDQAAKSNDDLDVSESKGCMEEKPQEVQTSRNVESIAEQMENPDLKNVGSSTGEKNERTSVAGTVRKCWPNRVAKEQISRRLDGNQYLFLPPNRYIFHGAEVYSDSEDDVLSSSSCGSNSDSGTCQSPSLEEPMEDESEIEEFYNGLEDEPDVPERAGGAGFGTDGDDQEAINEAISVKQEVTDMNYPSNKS

Ku70, sequence (P12956 2-609): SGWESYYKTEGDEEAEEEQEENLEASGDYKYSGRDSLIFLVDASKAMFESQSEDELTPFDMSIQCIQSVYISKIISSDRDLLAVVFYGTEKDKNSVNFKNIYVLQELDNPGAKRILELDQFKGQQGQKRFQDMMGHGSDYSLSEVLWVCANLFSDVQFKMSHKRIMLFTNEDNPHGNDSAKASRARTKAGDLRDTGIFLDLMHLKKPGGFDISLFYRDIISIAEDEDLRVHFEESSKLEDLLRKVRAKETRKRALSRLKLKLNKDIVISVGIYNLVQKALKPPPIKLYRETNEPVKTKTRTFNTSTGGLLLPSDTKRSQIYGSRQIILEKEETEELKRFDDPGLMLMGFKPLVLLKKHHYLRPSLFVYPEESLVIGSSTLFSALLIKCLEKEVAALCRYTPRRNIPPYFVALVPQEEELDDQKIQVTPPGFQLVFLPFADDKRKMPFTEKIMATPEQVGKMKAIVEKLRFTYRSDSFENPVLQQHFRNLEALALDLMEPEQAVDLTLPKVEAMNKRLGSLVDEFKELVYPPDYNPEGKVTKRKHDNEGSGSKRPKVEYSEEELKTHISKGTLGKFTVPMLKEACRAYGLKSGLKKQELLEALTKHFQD

| Molecule | Kd [1] [µM] | cell-free SIRT1 FRET-based screening assay (Cayman kit), 15 μM [2] |
| --- | --- | --- |
| MI-319 | 0.17 | – |
| COc1ccc(C2=NC(c3ccc(Cl)cc3)C(c3ccc(Cl)cc3)N2C(=O)N2CCNC(=O)C2)c(OC(C)C)c1 (racemic) [Nutlin-3, (±)-4-[4,5-Bis(4-chlorophenyl)-2-(2-isopropoxy-4-methoxy-phenyl)-4,5-dihydro-imidazole-1-carbonyl]-piperazin-2-one] | 169 | MI-219, MI-319 and Nutlin-3 significantly suppressed SIRT1 activity while the inactive analog MI-10 did not |
